Experimental data from patent publication US20250270209A1 (INTERLINE THERAPEUTICS, INC., priority 2022, published 2025).

Experiments:
LRRK2 wild type enzyme = LRRK2 wild type enzyme (Homo sapiens, UniProt Q5S007); experiment: Biochemical Assay: LRRK2 TR-FRET (LanthaScreen) kinase assay with LRRKtide substrate; details: LRRK2 Inhibition, Table 8
Procedure, shortened: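 TR-FRET detection (Tb-labelled phospho-LRRKtide antibody, EDTA stop, 30 min) followed a 120 min, 23 °C reaction of 3 nM wild-type human LRRK2 with LRRKtide (400 nM) and ATP (25 μM) in Tris pH 8.0. Compounds: 11-point 3-fold series from 10 μM, 15 min enzyme preincubation.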

[1] = target: T1, wild type LRRK2 overexpressed in recombinant HEK-293T cells (Homo sapiens, UniProt Q5S007); experiment: pS935 LRRK2 Cell Assay (HTRF, phospho-LRRK2 Ser935); assay type: cell-based; details: LRRK2 Inhibition, Table 8, 2 hours compound incubation
T1 construct: host or cells: HEK293T (transient transfection with pCMV-LRRK2 WT plasmid)
T1 sequence (Q5S007 whole entry): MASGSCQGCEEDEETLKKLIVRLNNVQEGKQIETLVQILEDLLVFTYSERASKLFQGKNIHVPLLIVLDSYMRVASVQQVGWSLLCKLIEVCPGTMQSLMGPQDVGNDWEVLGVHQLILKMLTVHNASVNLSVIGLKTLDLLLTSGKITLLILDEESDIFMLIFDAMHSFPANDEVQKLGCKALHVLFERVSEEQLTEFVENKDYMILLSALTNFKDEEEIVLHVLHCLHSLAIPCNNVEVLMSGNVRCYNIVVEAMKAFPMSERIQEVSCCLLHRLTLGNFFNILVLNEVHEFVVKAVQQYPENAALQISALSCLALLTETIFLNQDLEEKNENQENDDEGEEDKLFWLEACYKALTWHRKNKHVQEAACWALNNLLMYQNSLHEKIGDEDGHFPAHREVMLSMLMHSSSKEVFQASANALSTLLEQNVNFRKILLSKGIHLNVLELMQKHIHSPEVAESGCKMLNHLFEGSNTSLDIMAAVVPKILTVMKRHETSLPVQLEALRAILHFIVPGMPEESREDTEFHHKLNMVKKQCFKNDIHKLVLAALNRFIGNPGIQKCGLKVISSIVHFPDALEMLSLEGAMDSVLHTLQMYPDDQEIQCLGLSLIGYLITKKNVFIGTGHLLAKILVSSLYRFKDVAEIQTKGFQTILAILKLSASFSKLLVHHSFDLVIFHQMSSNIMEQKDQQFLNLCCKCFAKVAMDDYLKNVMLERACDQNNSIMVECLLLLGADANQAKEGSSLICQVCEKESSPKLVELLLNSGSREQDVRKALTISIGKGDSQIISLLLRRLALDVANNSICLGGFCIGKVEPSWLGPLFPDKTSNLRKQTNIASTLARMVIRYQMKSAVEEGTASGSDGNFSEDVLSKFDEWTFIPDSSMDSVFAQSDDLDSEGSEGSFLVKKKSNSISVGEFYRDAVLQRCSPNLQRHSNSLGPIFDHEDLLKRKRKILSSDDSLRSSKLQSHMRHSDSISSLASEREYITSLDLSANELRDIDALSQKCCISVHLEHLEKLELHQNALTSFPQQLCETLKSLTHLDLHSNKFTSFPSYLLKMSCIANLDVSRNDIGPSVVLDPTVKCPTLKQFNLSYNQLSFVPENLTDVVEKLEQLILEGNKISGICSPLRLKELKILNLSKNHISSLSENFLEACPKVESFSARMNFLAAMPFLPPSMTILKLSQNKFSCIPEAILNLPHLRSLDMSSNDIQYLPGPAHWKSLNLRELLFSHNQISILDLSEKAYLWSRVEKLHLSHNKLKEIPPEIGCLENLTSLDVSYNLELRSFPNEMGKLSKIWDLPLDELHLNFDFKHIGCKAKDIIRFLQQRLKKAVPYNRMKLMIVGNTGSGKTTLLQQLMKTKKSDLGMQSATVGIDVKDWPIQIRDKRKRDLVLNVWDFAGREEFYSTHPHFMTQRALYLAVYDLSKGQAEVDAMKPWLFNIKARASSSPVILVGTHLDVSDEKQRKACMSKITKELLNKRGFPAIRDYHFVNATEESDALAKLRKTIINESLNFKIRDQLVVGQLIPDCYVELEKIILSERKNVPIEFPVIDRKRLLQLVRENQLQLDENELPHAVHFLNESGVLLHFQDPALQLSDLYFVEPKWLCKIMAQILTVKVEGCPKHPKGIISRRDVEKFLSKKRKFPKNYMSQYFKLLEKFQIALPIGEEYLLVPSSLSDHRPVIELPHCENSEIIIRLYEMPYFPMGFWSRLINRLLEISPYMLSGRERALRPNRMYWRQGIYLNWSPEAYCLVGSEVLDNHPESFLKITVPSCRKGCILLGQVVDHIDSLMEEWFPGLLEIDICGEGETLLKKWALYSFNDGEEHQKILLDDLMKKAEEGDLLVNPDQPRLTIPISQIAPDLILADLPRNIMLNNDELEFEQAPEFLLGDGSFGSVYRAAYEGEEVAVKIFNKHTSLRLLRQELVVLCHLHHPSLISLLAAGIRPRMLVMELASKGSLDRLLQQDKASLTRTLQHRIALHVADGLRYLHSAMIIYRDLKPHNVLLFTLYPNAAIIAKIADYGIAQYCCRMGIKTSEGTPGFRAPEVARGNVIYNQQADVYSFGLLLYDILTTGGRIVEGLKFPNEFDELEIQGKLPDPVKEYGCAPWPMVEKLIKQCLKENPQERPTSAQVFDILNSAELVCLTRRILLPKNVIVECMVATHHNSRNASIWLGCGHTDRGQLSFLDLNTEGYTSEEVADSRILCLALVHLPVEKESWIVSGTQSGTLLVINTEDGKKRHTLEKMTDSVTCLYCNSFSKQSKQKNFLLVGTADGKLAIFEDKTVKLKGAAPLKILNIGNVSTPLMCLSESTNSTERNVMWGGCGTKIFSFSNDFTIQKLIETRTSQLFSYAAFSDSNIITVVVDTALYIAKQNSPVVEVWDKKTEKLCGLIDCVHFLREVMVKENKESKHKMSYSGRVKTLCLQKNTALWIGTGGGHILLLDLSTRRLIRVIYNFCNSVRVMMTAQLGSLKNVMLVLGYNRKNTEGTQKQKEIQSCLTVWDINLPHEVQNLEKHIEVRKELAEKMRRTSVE
Procedure, shortened: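 Phospho-Ser935 LRRK2 measured by two-antibody HTRF (Eu-cryptate donor, d2 acceptor; 665/615 nm ratio) after overnight detection at 23° C. Before lysis, transiently LRRK2-transfected HEK-293T cells were exposed 2 h at 37° C to a 9-point, 3-fold series from 10 μM, with DMSO at 0.2%.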

LRRK2 wild type enzyme, sequence (Q5S007 whole entry): as above

| Compound | IC50 (LRRK2 wild type enzyme) | IC50 [1] |
| --- | --- | --- |
| CN1CC(n2c(CC(=O)NCC3CC3)nc3cnc4ccc(C#N)cc4c32)CCC1=O (single isomer, unassigned) [Compound 90] | 1.42 nM | 799 nM |
| C[C@@H]1C[C@H](n2c(CC(=O)Nc3ccc(OC(F)F)nc3)nc3cnc4ccc(C#N)cc4c32)CCO1 [Compound 293, N-(6-difluoromethoxy-3-pyridyl){3-[(2R,4R)-2-methyltetrahydro-2H-pyran-4-yl]-12-cyano-3,5,8-triazatricyclo[7.4.0.0^2,6]trideca-1,4,6,8,10,12-hexaen-4-yl}acetamide] | 0.514 nM | 9.81 nM |
| C[C@@H]1C[C@H](n2c(C3CCN(C(=O)C4CC4)CC3)nc3cnc4ccc(C#N)cc4c32)CCO1 [Compound 27, 2-(1-cyclopropanecarbonylpiperidin-4-yl)-1-[(2R,4R)-2-methyloxan-4-yl]-1H-imidazo[4,5-c]quinoline-8-carbonitrile] | 1.49 nM | 115 nM |
| CC(=O)N1CC[C@@H](c2nc3cnc4ccc(C#N)cc4c3n2[C@@H]2CCO[C@H](C)C2)C1 [Compound 42, 2-[(3R)-1-acetylpyrrolidin-3-yl]-1-[(2R,4R)-2-methyloxan-4-yl]-1H-imidazo[4,5-c]quinoline-8-carbonitrile] | 13 nM | 2070 nM |
| CO[C@H]1C[C@@H](NC(=O)Cc2nc3cnc4ccc(C#N)cc4c3n2[C@@H]2CCO[C@H](C)C2)C1 [Compound 301, N-[(1s,3s)-3-methoxycyclobutyl]{3-[(2R,4R)-2-methyltetrahydro-2H-pyran-4-yl]-12-cyano-3,5,8-triazatricyclo[7.4.0.0^2,6]trideca-1,4,6,8,10,12-hexaen-4-yl}acetamide] | 0.701 nM | 41.3 nM |
| C[C@@H]1C[C@H](n2c(CN3CCCCC3=O)nc3cnc4ccc(C#N)cc4c32)CCO1 [Compound 79, 1-[(2R,4R)-2-methyloxan-4-yl]-2-[(2-oxopiperidin-1-yl)methyl]-1H-imidazo[4,5-c]quinoline-8-carbonitrile] | 10.8 nM | 815 nM |
| C[C@@H]1C[C@H](n2c(CC(=O)Nc3ccc(=O)n(C)c3)nc3cnc4ccc(Cl)cc4c32)CCO1 [Compound 219, N-(1-methyl-6-oxo-1,6-dihydro-3-pyridyl){3-[(2R,4R)-2-methyltetrahydro-2H-pyran-4-yl]-12-chloro-3,5,8-triazatricyclo[7.4.0.0^2,6]trideca-1,4,6,8,10,12-hexaen-4-yl}acetamide] | 0.232 nM | 15.8 nM |
| C[C@@H]1C[C@H](n2c(CN3CCCC3=O)nc3cnc4ccc(C#N)cc4c32)CCO1 [Compound 80, 1-[(2R,4R)-2-methyloxan-4-yl]-2-[(2-oxopyrrolidin-1-yl)methyl]-1H-imidazo[4,5-c]quinoline-8-carbonitrile] | 4.28 nM | 447 nM |
| C[C@@H]1C[C@H](n2c(CC(=O)Nc3cnc(C(F)F)nc3)nc3cnc4ccc(C#N)cc4c32)CCO1 [Compound 254, N-[2-(difluoromethyl)-5-pyrimidinyl]{3-[(2R,4R)-2-methyltetrahydro-2H-pyran-4-yl]-12-cyano-3,5,8-triazatricyclo[7.4.0.0^2,6]trideca-1(9),2(6),4,7,10,12-hexaen-4-yl}acetamide] | 0.546 nM | 27.3 nM |
| C[C@@H]1C[C@H](n2c(CC(=O)NCC3CCCCO3)nc3cnc4ccc(C#N)cc4c32)CCO1 (stereo partly drawn) [Compound 143, 2-{8-cyano-1-[(2R,4R)-2-methyloxan-4-yl]-1H-imidazo[4,5-c]quinolin-2-yl}-N-[(oxan-2-yl)methyl]acetamide] | 0.534 nM | 11.5 nM |
| C[C@@H]1C[C@H](n2c(CC(=O)Nc3cc(C(C)(C)F)no3)nc3cnc4ccc(C#N)cc4c32)CCO1 [Compound 341, N-[3-(1-fluoro-1-methylethyl)-5-isoxazolyl]{3-[(2R,4R)-2-methyltetrahydro-2H-pyran-4-yl]-12-cyano-3,5,8-triazatricyclo[7.4.0.0^2,6]trideca-1(9),2(6),4,7,10,12-hexaen-4-yl}acetamide] | 0.423 nM | 8.13 nM |
| C[C@@H]1C[C@H](n2c([C@H]3CCN(C(=O)OC(C)(C)C)C3)nc3cnc4ccc(C#N)cc4c32)CCO1 [Compound 26, tert-butyl (3S)-3-{8-cyano-1-[(2R,4R)-2-methyloxan-4-yl]-1H-imidazo[4,5-c]quinolin-2-yl}pyrrolidine-1-carboxylate] | 5.26 nM | 452 nM |
| C[C@@H]1C[C@H](n2c(CC(=O)Nc3cccn(CC(C)(C)O)c3=O)nc3cnc4ccc(C#N)cc4c32)CCO1 [Compound 240, N-[1-(2-hydroxy-2-methylpropyl)-2-oxo-1,2-dihydro-3-pyridyl]{3-[(2R,4R)-2-methyltetrahydro-2H-pyran-4-yl]-12-cyano-3,5,8-triazatricyclo[7.4.0.0^2,6]trideca-1(9),2(6),4,7,10,12-hexaen-4-yl}acetamide] | 0.328 nM | 26.7 nM |
| C[C@@H]1C[C@H](n2c(CC(=O)Nc3ncccn3)nc3cnc4ccc(Cl)cc4c32)CCO1 [Compound 353, N-2-pyrimidinyl{3-[(2R,4R)-2-methyltetrahydro-2H-pyran-4-yl]-12-chloro-3,5,8-triazatricyclo[7.4.0.0^2,6]trideca-1(9),2(6),4,7,10,12-hexaen-4-yl}acetamide] | 0.395 nM | 1.84 nM |
| C[C@@H]1C[C@H](n2c(CC(=O)NCc3ncccn3)nc3cnc4ccc(Cl)cc4c32)CCO1 [Compound 142, 2-{8-chloro-1-[(2R,4R)-2-methyloxan-4-yl]-1H-imidazo[4,5-c]quinolin-2-yl}-N-[(pyrimidin-2-yl)methyl]acetamide] | 0.565 nM | 17.8 nM |
| C[C@@H]1C[C@H](n2c(CC(=O)NC3CCOCC3)nc3cnc4ccc(C#N)cc4c32)CCO1 [Compound 4, 2-{8-cyano-1-[(2R,4R)-2-methyloxan-4-yl]-1H-imidazo[4,5-c]quinolin-2-yl}-N-(oxan-4-yl)acetamide] | 0.551 nM | 57.5 nM |
| C[C@@H]1C[C@H](n2c(CC(=O)Nc3ccno3)nc3cnc4ccc(C#N)cc4c32)CCO1 [Compound 165, 2-{8-cyano-1-[(2R,4R)-2-methyloxan-4-yl]-1H-imidazo[4,5-c]quinolin-2-yl}-N-(1,2-oxazol-5-yl)acetamide] | 0.789 nM | 10.6 nM |
| Cc1ncnc(C)c1NC(=O)Cc1nc2cnc3ccc(Cl)cc3c2n1[C@@H]1CCO[C@H](C)C1 [Compound 207, N-(4,6-dimethyl-5-pyrimidinyl){3-[(2R,4R)-2-methyltetrahydro-2H-pyran-4-yl]-12-chloro-3,5,8-triazatricyclo[7.4.0.0^2,6]trideca-1,4,6,8,10,12-hexaen-4-yl}acetamide] | 0.333 nM | 7.53 nM |
| C[C@@H]1C[C@H](n2c(CC(=O)Nc3cnc(C(F)(F)F)n(C)c3=O)nc3cnc4ccc(C#N)cc4c32)CCO1 [Compound 220, N-[1-methyl-6-oxo-2-(trifluoromethyl)-1,6-dihydro-5-pyrimidinyl]{3-[(2R,4R)-2-methyltetrahydro-2H-pyran-4-yl]-12-cyano-3,5,8-triazatricyclo[7.4.0.0^2,6]trideca-1,4,6,8,10,12-hexaen-4-yl}acetamide] | 0.447 nM | 4.25 nM |
| C[C@@H]1C[C@H](n2c(CC(=O)NC3(c4ncccn4)CC3)nc3cnc4ccc(C#N)cc4c32)CCO1 [Compound 360, N-[1-(2-pyrimidinyl)cyclopropyl]{3-[(2R,4R)-2-methyltetrahydro-2H-pyran-4-yl]-12-cyano-3,5,8-triazatricyclo[7.4.0.0^2,6]trideca-1,4,6,8,10,12-hexaen-4-yl}acetamide] | 1.24 nM | 104 nM |
| C[C@@H]1C[C@H](n2c([C@H]3CNC(=O)C3)nc3cnc4ccc(C#N)cc4c32)CCO1 [Compound 72, 1-[(2R,4R)-2-methyloxan-4-yl]-2-[(3R)-5-oxopyrrolidin-3-yl]-1H-imidazo[4,5-c]quinoline-8-carbonitrile] | 1.86 nM | 3600 nM |
| C[C@@H]1C[C@H](n2c(CC(=O)NC[C@H]3CCCO3)nc3cnc4ccc(C#N)cc4c32)CCO1 [Compound 153, 2-{8-cyano-1-[(2R,4R)-2-methyloxan-4-yl]-1H-imidazo[4,5-c]quinolin-2-yl}-N-{[(2R)-oxolan-2-yl]methyl} acetamide] | 0.514 nM | 21.3 nM |
| C[C@@H]1C[C@H](n2c(CC(=O)NC3CC3)nc3cnc4ccc(C#N)cc4c32)CCO1 [Compound 5, 2-{8-cyano-1-[(2R,4R)-2-methyloxan-4-yl]-1H-imidazo[4,5-c]quinolin-2-yl}-N-cyclopropylacetamide] | 0.586 nM | 35.6 nM |
| Cc1cnn(C)c1NC(=O)Cc1nc2cnc3ccc(C#N)cc3c2n1[C@@H]1CCO[C@H](C)C1 [Compound 350, N-(1-methyl-4-methyl-5-pyrazolyl){3-[(2R,4R)-2-methyltetrahydro-2H-pyran-4-yl]-12-cyano-3,5,8-triazatricyclo[7.4.0.0^2,6]trideca-1(9),2(6),4,7,10,12-hexaen-4-yl}acetamide] | 0.487 nM | 15.4 nM |
| COc1ncnc(C)c1NC(=O)Cc1nc2cnc3ccc(C#N)cc3c2n1[C@@H]1CCO[C@H](C)C1 [Compound 204, N-(4-methoxy-6-methyl-5-pyrimidinyl){3-[(2R,4R)-2-methyltetrahydro-2H-pyran-4-yl]-12-cyano-3,5,8-triazatricyclo[7.4.0.0^2,6]trideca-1,4,6,8,10,12-hexaen-4-yl}acetamide] | 0.466 nM | 6.64 nM |
